{"source": "patent US20160272622A1", "about": "“TETRAZOLINONE COMPOUND AND USE THEREOF” (SUMITOMO CHEMICAL COMPANY, LIMITED, priority 2013, published 2016)", "assay_type_in_all_cases": "in vivo", "key": {"[1]": {"tested_on": "target spot fungus (Corynespora cassiicola)", "assay": "Cucumber target spot control test, foliar spray before inoculation", "conditions": "200 ppm sprayed on cucumber (SAGAMI HANJIRO); inoculated one day after spraying; 7 days", "experimental": "(§1) The control effect was evaluated by visually observing the area of lesion on each of test plants at the time of investigation, and comparing the area of lesion spots on a plant treated with the present compound with that on an untreated plant.\nEach of plastic pots was filled with soil and cucumber (cultivar: SAGAMI HANJIRO) was sowed and grown in a greenhouse for 19 days. Then, each water dilution prepared by adjusting so as to contain a predetermined concentration (200 ppm) of the present compound 6 was sprayed over stems and leaves of the cucumber so that it sufficiently adhered to the surface of the leaves of the cucumber. After spraying, the plant was air-dried. After one day, an aqueous suspension containing spores of target spot fungus […]. After the inoculation, the plant was cultivated in a greenhouse at 24° C. in the daytime and 20° C. at night for 7 days, and then the area of lesion was investigated. As a result, the area of lesion on the plant treated with the present compound 6 was 30% or less of that on an untreated plant."}, "[2]": {"tested_on": "barley net blotch fungus (Pyrenophora teres)", "assay": "Barley net blotch control test, foliar spray before inoculation", "conditions": "500 ppm sprayed on barley (NISHINOHOSHI); inoculated 2 days after spraying", "experimental": "as §1\nEach of plastic pots was filled with soil and barley (cultivar: NISHINOHOSHI) was sowed and grown in a greenhouse for 7 days. Then, each water dilution prepared by adjusting so as to contain a predetermined concentration (500 ppm) of any one compound of the present compounds 1, and 3 to 16 was sprayed over stems and leaves of the barley so that it sufficiently adhered to the surface of the leaves of the barley. After spraying, the plant was air-dried. After 2 days, an aqueous suspension containing spores of barley net blotch fungus (Pyrenophora teres) was sprayed to inoculate the spores. After completion of the inoculation, the plant was placed for 3 days in a greenhouse at 23° C. in the daytime and 20° C. at night under high humidity condition and cultivated in a greenhouse for 7 days, and then the area of lesion was investigated. As a result, the area of lesion on the plant treated with the present compound(s) 1, or 3 to 16 was 30% or less of that on an untreated plant."}, "[3]": {"tested_on": "wheat leaf blotch fungus (Septoria tritici)", "assay": "Wheat leaf blotch control test, spray after inoculation", "conditions": "50 ppm sprayed on wheat (APOGEE) 3 days after inoculation"}, "[4]": {"tested_on": "cotton aphid (Aphis gossypii)", "assay": "Cotton aphid control test on sprayed cucumber", "conditions": "500 ppm, 20 mL sprayed on cucumber; adults and larvae; after 6 days", "experimental": "Thirty (30) heads of cotton aphid (Aphis gossypii) (including adults and larvae) were released on the leaves of cucumber (cultivar: SAGAMI HANJIRO FUSHINARI) grown in a polyethylene cup until the first true leaf was developed. Next day, 20 mL of the test chemical solution was sprayed.\nControl value (%)={1−(Cb×Tai)/(Cai×Tb)}×100\nwherein symbols in the equation represent the followings: […]\nCb: Number of insects before spraying chemical solution in untreated area;\nCai: Number of surviving insects in untreated area;\nTb: Number of insects before spraying chemical solution in treated area; and\nTai: Number of surviving insects in treated area."}, "[5]": {"tested_on": "wheat rust fungus (Puccinia recondita)", "assay": "Wheat rust control test, foliar spray before inoculation", "conditions": "200 ppm sprayed on wheat (SHIROGANE); inoculated 5 days after spraying", "experimental": "as §1\nEach of plastic pots was filled with soil and wheat (cultivar: SHIROGANE) was sowed and grown in a greenhouse for 9 days. Then, each water dilution prepared by adjusting so as to contain a predetermined concentration (200 ppm) of any one compound of the present compounds 12, and 14 to 16 was sprayed over stems and leaves of the wheat so that it sufficiently adhered to the surface of the leaves of the wheat. After spraying, the plant was air-dried and cultivated at 20° C. for 5 days under illumination, and then inoculated by sprinkling with spores of wheat rust fungus (Puccinia recondita). After the inoculation, the plant was placed at 23° C. for one day under dark and high humidity condition, and cultivated under illumination at 20° C. for 8 days, and then the area of lesion was investigated."}}, "data": [{"smiles": "Cn1nnn(-c2cccnc2COc2ccn(-c3ccc(Cl)cc3)n2)c1=O", "note": "[present compound 6, 1-(2-{[1-(4-chlorophenyl)-1H-pyrazol-3-yl]oxymethyl}-pyridin-3-yl)-4-methyl-1,4-dihydrotetrazol-5-one]", "values": [{"measurement": "area of lesion on treated plant relative to that on an untreated plant", "setting": "[1]", "value": "≤ 30", "unit": "%"}]}, {"smiles": "Cn1nnn(-c2cnn(C(C)(C)C)c2COc2ccn(-c3ccc(Cl)cc3)n2)c1=O", "note": "[present compound 1, 1-(1-tert-butyl-5-{[1-(4-chlorophenyl)-1H-pyrazol-3-yl]oxymethyl}-1H-pyrazol-4-yl)-4-methyl-1,4-dihydrotetrazol-5-one]", "values": [{"measurement": "area of lesion on treated plant relative to that on an untreated plant", "setting": "[2]", "value": "≤ 30", "unit": "%"}]}, {"smiles": "Cn1nnn(-c2cnn(C(C)(C)C)c2COc2nc(-c3ccc(Cl)cc3)cs2)c1=O", "note": "[present compound 3]", "values": [{"measurement": "area of lesion on treated plant relative to that on an untreated plant", "setting": "[3]", "value": "≤ 30", "unit": "%"}]}, {"smiles": "COc1ccccc1-n1ccc(OCc2c(-n3nnn(C)c3=O)cnn2C(C)(C)C)n1", "note": "[present compound 12, 1-(1-tert-butyl-5-{[1-(2-methoxyphenyl)-1H-pyrazol-3-yl]oxymethyl}-1H-pyrazol-4-yl)-4-methyl-1,4-dihydrotetrazol-5-one]", "values": [{"measurement": "Control value", "setting": "[4]", "value": "≥ 90", "unit": "%"}, {"measurement": "area of lesion on treated plant relative to that on an untreated plant", "setting": "[5]", "value": "≤ 30", "unit": "%"}]}]}
